From patent US12686666B2, “Triazine compound salt, crystal form thereof, and production method therefor” (TANABE PHARMA CORPORATION, priority 2020, dated 2026)
Marks after values point to notes of the source that are not given here.

Tests used:
Assay type in all cases: physicochemical
[1] = Thermal stability evaluation (TG/DTA weight change); conditions: for Thermal stability, conclusion in words: did not show a significant weight change (Succinate Form A: at 25 to 148° C., melting point)
Experimental: Thermal stability was measured and evaluated by using a thermogravimetry/differential thermal analyzer TG/DTA7200 (SII NanoTechnology Inc.) under the following conditions. • Rate of temperature increase: 10° C./min • Range of temperature increase: 25 to 300° C. • Atmosphere: nitrogen 200 mL/min <Hygroscopicity or Deliquescency Evaluation>
Thermal stability was measured and evaluated by using a thermogravimetry/differential thermal analyzer TG/DTA7200 (SII NanoTechnology Inc.) under the following conditions • Rate of temperature increase: 10° C./min • Range of temperature increase: 30 to 300° C. • Atmosphere: nitrogen 200 mL/min • or • using a TGA/DSC1 thermogravimetric analyzer (manufactured by Mettler Toledo, STARe system) under the following conditions. • Rate of temperature increase: 10° C./min • Range of temperature increase: 25 to 300° C. • Atmosphere: nitrogen 50 mL/min <Hygroscopicity or Deliquescency Evaluation>

[2] = Chemical stability evaluation (storage 1 week, liquid chromatography peak area %); conditions: for Chemical stability, conclusion in words: did not show a significant increase of related substances
Experimental: Each about 1 mg of a sample stored at 60° C. (sealed) or 60° C./75% RH (open) for 1 week and an unstored sample (at the start of test) was dissolved into a mixed solution of acetonitrile/water (1:1) (5 mL) to obtain each sample solution. A test was carried out by liquid chromatographic method under the following conditions to measure each peak area (%).
Each peak area (%) was measured by using Waters ACQUITY UPLC under the following conditions. • Detector: Photodiode array (measurement wavelength: 239 nm) • Column: Waters ACQUITY BEH C18 (2.1 mm×100 mm, 1.7 μm) • Column temperature: constant temperature about 40° C. • Mobile phase: Solution A; water/TFA (2000:1), Solution B; Acetonitrile/TFA (2000:1) • Concentration gradient control: B % 2→100% (15 minutes) • Flow rate: 0.5 mL/min • Injection volume: 2 μL
Each sample was stored at 60° C. under a sealed condition and at 60° C. under 75% RH for 1 week, and an increase or decrease of related substance(s) after the storage was calculated by high-performance liquid chromatographic method on the basis of the area percentage of each peak. Also, the condition of each sample after the storage was observed.

[3] = Hygroscopicity or deliquescency evaluation (moisture adsorption, DVS); conditions: for Hydration state (hydration stage in moisture adsorption): normal temperature, relative humidity of 10 to 95%; for Hygroscopicity or deliquescency, conclusion in words: from Table 5
Experimental: Hygroscopicity or deliquescency was evaluated as follows by using a moisture adsorption measurement device DVS-1 or DVS-intrinsic (Surface Measurement Systems Limited). Each sample (about 5 mg) was placed into an aluminum plate of which the tare weight had been corrected in advance, and the plate was hung on the precision balance of said device to precisely measure the weight at the start of measurement. The humidity was changed in a stepwise manner in a chamber at 25° C., the weight change was recorded with time, and the equilibrium weight was calculated at each humidity. On the basis of the weight at a dried condition (0% RH), the weight change rate and hydration number at each humidity were calculated.
Hygroscopicity or deliquescency was evaluated as follows by using a moisture adsorption measurement device DVS-1 or DVS-intrinsic (Surface Measurement Systems Limited). Each sample was placed into a cell of which the tare weight had been corrected in advance, and the cell was hung on the precision balance of said device to precisely measure the weight at the start of measurement. The humidity was changed in a stepwise manner, the weight change was recorded with time, and the equilibrium weight was calculated at each humidity. On the basis of the weight of anhydride converted from the amount of water at a dried condition (0% RH) or at the start of measurement observed by an alternative method, the weight change rate at each humidity was calculated.

[4] = Table 5, change of related substances (peak area %) vs start
[5] = Table 5, stored 1 week at 60° C. sealed, change of related substances (peak area %) vs start
[6] = Table 5, 25° C., relative to weight at 0% RH
[7] = Table 10, increase or decrease of related substance(s), HPLC area percentage
[8] = Table 10, *1 with hydration stage

SMILES	Thermal stability, conclusion in words [1]	Chemical stability 60° C., 75% RH, 1 week (open) [2, 4] [%]	Chemical stability 60° C. (sealed) [2, 5] [%]	Chemical stability, conclusion in words [2]	Hygroscopicity or Deliquescency Weight change at 90% RH [3, 6] [%]	also measured
CC(=O)NC1CCC(NC(=O)CN2CCN(c3nncc(-c4ccc(C)cc4)n3)CC2)CC1.O=C(O)C=CC(=O)O (centres unmarked) [Maleate Form A crystal]	excellent thermal stability	0.12	0.01	excellent chemical stability	22	Thermal stability TG: weight change ([1]; no temperature range printed): 0.0%
CC(=O)NC1CCC(NC(=O)CN2CCN(c3nncc(-c4ccc(C)cc4)n3)CC2)CC1.O=C(O)CC(O)C(=O)O (centres unmarked) [Malate Form A crystal]	–	–	–	–	15	Thermal stability TG: weight change ([1]; 25-280° C.): 21.2%
CC(=O)NC1CCC(NC(=O)CN2CCN(c3nncc(-c4ccc(C)cc4)n3)CC2)CC1.Cl.Cl (centres unmarked) [Hydrochloride Form B crystal]	–	–	–	–	5.5	–
Br.Br.CC(=O)NC1CCC(NC(=O)CN2CCN(c3nncc(-c4ccc(C)cc4)n3)CC2)CC1 (centres unmarked) [Hydrobromide Form F crystal]	–	–	–	–	–	Thermal stability TG: weight change ([1]; Table 10, room temperature −200° C.): 4.8%; Chemical stability 60° C. (sealed) ([2]; Table 10, 1 week, increase or decrease of related substance(s), HPLC area percentage): 0.02%; Chemical stability 60° C., 75% RH, 1 week (open) [2, 7]: 0.12%; Hygroscopicity or Deliquescency Weight change at 90% RH [3, 8]: 3.5%*^1; Hydration state (hydration stage in moisture adsorption) [3]: hydrate
CC(=O)NC1CCC(NC(=O)CN2CCN(c3nncc(-c4ccc(C)cc4)n3)CC2)CC1.O=C(O)CC(O)(CC(=O)O)C(=O)O (centres unmarked) [Citrate Form A crystal]	excellent thermal stability	0.03	−0.03	excellent chemical stability	7.6	Thermal stability TG: weight change ([1]; 25° C.-melting point): 2.2%
CC(=O)NC1CCC(NC(=O)CN2CCN(c3nncc(-c4ccc(C)cc4)n3)CC2)CC1.O=C(O)C=CC(=O)O (centres unmarked) [Maleate Form B crystal]	excellent thermal stability	9.66	0.02	–	7.5	Thermal stability TG: weight change ([1]; 25-90° C.): 0.4%; Thermal stability TG: weight change ([1]; 120-260° C.): 17.6%; Condition of the sample after storage at 60° C., 75% RH, 1 week (open) ([2]; Table 5, remark in words under the value (glycolate: free body was observed at 60° C., 75% RH, 1 week)): (deliquescent)
CC(=O)NC1CCC(NC(=O)CN2CCN(c3nncc(-c4ccc(C)cc4)n3)CC2)CC1.CC(=O)NC1CCC(NC(=O)CN2CCN(c3nncc(-c4ccc(C)cc4)n3)CC2)CC1.O=S(=O)(O)O.O=S(=O)(O)O.O=S(=O)(O)O.O=S(=O)(O)O.O=S(=O)(O)O (centres unmarked) [Sulfate Form A crystal]	–	–	–	–	8	–
CC(=O)NC1CCC(NC(=O)CN2CCN(c3nncc(-c4ccc(C)cc4)n3)CC2)CC1.O=C(O)CCC(=O)O (centres unmarked) [Succinate Form A crystal]	excellent thermal stability	0.02	0.04	excellent chemical stability	0.4	Thermal stability TG: weight change ([1]; 25-148° C.): 0.0%; Thermal stability TG: weight change ([1]; 148-210° C.): 23.7%; Hygroscopicity or deliquescency, conclusion in words [3]: excellent in the reduced hygroscopicity or deliquescency
CC(=O)NC1CCC(NC(=O)CN2CCN(c3nncc(-c4ccc(C)cc4)n3)CC2)CC1.O=C(O)CO (centres unmarked) [Glycolate Form A crystal]	–	0.02	0.02	excellent chemical stability	1.9	Thermal stability TG: weight change ([1]; 70° C.-melting point): 14.4%; Hygroscopicity or deliquescency, conclusion in words [3]: excellent in the reduced hygroscopicity or deliquescency
CC(=O)NC1CCC(NC(=O)CN2CCN(c3nncc(-c4ccc(C)cc4)n3)CC2)CC1.Cc1ccc(S(=O)(=O)O)cc1.Cc1ccc(S(=O)(=O)O)cc1 (centres unmarked) [Tosilate Form C crystal]	excellent thermal stability	0.39	0.04	excellent chemical stability	1.4	Thermal stability TG: weight change ([1]; 25° C.-melting point): 1.2%; Hygroscopicity or deliquescency, conclusion in words [3]: excellent in the reduced hygroscopicity or deliquescency
CC(=O)NC1CCC(NC(=O)CN2CCN(c3nncc(-c4ccc(C)cc4)n3)CC2)CC1.Cl (centres unmarked) [Hydrochloride Form A crystal]	excellent thermal stability	−0.01	−0.01	excellent chemical stability	7.5	Thermal stability TG: weight change ([1]; 25-160° C.): 0.4%
Br.CC(=O)NC1CCC(NC(=O)CN2CCN(c3nncc(-c4ccc(C)cc4)n3)CC2)CC1 (centres unmarked) [Hydrobromide Form N crystal]	–	–	–	–	–	Thermal stability TG: weight change ([1]; Table 10, 25-242° C.): 6.2%; Chemical stability 60° C., 75% RH, 1 week (open) [2, 7]: 0.00%; Hygroscopicity or Deliquescency Weight change at 90% RH [3, 8]: 7.2%*^1; Hydration state (hydration stage in moisture adsorption) [3]: hydrate
CC(=O)NC1CCC(NC(=O)CN2CCN(c3nncc(-c4ccc(C)cc4)n3)CC2)CC1.Cc1ccc(S(=O)(=O)O)cc1 (centres unmarked) [Tosilate Form B crystal]	excellent thermal stability	−0.05	−0.07	excellent chemical stability	7.5	Thermal stability TG: weight change ([1]; 25° C.-melting point): 0.7%; Hygroscopicity or deliquescency, conclusion in words [3]: excellent in the reduced hygroscopicity or deliquescency
CC(=O)NC1CCC(NC(=O)CN2CCN(c3nncc(-c4ccc(C)cc4)n3)CC2)CC1.CS(=O)(=O)O (centres unmarked) [Mesilate Form A crystal]	excellent thermal stability	5.73	−0.13	–	17	Thermal stability TG: weight change ([1]; 120° C.): 0.8%
